pIC50: −log10 of the molar value.
How the values were obtained:
[1] = target: HDAC6 human recombinant (Homo sapiens (Human), UniProt Q9UBN7); assay: HDAC enzyme activity inhibition (in vitro), HDAC6 assay; type: biochemical; conditions: samples at 0.1, 1, 10, 100 and 1000 nM; 37° C. 60 minutes; fluorescence Ex 390, Em 460
[2] = target: HDAC1 (Homo sapiens (Human), UniProt Q13547); assay: HDAC enzyme activity inhibition (in vitro), HDAC1 Fluorimetric Drug Discovery Assay Kit; type: biochemical; conditions: samples at 100, 1000 and 10000 nM; 37° C. 60 minutes; fluorescence Ex 390, Em 460
Chain of HDAC1 (Q13547 whole entry): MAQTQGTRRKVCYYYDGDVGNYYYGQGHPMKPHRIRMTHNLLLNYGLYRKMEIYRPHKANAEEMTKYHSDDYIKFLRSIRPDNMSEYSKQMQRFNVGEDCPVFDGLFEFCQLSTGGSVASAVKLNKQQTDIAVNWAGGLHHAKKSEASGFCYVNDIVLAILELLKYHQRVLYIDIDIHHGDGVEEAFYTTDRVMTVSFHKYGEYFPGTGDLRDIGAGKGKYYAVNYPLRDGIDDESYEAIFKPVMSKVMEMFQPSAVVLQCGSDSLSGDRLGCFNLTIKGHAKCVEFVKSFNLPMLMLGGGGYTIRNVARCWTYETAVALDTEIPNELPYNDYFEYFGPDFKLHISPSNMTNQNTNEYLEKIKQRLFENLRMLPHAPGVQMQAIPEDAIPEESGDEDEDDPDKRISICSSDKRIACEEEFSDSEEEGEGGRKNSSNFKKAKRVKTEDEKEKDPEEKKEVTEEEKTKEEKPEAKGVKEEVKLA

Chain of HDAC6 human recombinant (Q9UBN7 whole entry): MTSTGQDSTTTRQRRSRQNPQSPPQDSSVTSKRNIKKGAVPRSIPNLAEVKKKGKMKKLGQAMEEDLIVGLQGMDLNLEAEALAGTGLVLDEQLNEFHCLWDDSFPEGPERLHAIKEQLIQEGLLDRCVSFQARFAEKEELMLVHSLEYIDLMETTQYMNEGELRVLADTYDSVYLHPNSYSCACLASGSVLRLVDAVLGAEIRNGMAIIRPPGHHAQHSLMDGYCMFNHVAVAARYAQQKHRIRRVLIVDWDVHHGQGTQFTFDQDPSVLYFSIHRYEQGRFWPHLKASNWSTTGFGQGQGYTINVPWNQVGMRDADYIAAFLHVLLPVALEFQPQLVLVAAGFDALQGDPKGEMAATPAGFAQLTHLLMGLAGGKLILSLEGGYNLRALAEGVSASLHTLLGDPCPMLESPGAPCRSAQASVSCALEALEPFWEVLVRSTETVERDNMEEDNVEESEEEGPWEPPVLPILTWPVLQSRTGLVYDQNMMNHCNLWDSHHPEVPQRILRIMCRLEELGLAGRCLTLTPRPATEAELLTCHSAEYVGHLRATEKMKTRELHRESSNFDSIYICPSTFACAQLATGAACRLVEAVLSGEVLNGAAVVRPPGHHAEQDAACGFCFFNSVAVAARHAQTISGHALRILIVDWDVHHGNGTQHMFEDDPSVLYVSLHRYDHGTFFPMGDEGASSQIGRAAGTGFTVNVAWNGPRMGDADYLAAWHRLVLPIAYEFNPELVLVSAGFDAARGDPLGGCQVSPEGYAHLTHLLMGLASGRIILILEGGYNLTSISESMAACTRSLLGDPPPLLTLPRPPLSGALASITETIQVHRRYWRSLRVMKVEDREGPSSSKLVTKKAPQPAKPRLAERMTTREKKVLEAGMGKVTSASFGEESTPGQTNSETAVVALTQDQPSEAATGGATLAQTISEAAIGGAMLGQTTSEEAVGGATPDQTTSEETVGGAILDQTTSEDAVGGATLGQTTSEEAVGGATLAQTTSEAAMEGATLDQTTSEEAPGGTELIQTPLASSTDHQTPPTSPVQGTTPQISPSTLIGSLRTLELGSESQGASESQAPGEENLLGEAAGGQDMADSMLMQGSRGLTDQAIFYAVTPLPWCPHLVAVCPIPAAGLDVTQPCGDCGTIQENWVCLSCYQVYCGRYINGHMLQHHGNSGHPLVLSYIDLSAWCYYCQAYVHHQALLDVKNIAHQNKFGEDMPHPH

| pIC50 [1] | pIC50 [2] | Compound |
| --- | --- | --- |
| 7.49 | < 5.00 | CCCN1CCN(c2ccc3c(c2)C(C)(C)C(=O)N(Cc2ccc(-c4nnc(C(F)F)o4)cn2)C3=O)CC1 [Compound 148] |
| 7.02 | < 5.00 | CC(C)CN1CCN(c2ccc3c(c2)C(C)(C)C(=O)N(Cc2ccc(-c4nnc(C(F)F)o4)cn2)C3=O)CC1 [Compound 149, 2-((5-(5-(difluoromethyl)-1,3,4-oxadiazole-2-yl)pyridine-2-yl)methyl)-6-(4-isobutylpiperazine-1-yl)-4,4-dimethylisoquinoline-1,3(2H,4H)-dione] |
| 7.29 | < 5.00 | CC1(C)C(=O)N(Cc2ccc(-c3nnc(C(F)F)o3)cn2)C(=O)c2ccc(N3CCN(C4CCC(F)(F)CC4)CC3)cc21 [Compound 150, 6-(4-(4,4-difluorocyclohexyl)piperazine-1-yl)-2-((5-(5-(difluoromethyl)-1,3,4-oxadiazole-2-yl)pyridine-2-yl)methyl)-4,4-dimethylisoquinoline-1,3(2H,4H)-dione] |
| 6.90 | < 5.00 | CC1(C)C(=O)N(Cc2ncc(-c3nnc(C(F)F)o3)cn2)C(=O)c2ccc(Br)cc21 [Compound 152, 6-bromo-2-((5-(5-(difluoromethyl)-1,3,4-oxadiazole-2-yl)pyrimidine-2-yl)methyl)-4,4-dimethylisoquinoline-1,3(2H,4H)-dione] |
| 6.93 | < 5.00 | CN1CCN(c2ccc3c(c2)C(C)(C)C(=O)N(Cc2ncc(-c4nnc(C(F)F)o4)cn2)C3=O)CC1 [Compound 153, 2-((5-(5-(difluoromethyl)-1,3,4-oxadiazole-2-yl)pyrimidine-2-yl)methyl)-4,4-dimethyl-6-(4-methylpiperazine-1-yl)isoquinoline-1,3(2H,4H)-dione] |
| 6.73 | < 5.00 | CCN1CC=C(c2ccc3c(c2)C(C)(C)C(=O)N(Cc2ncc(-c4nnc(C(F)F)o4)cn2)C3=O)CC1 [Compound 155, 2-((5-(5-(difluoromethyl)-1,3,4-oxadiazole-2-yl)pyrimidine-2-yl)methyl)-6-(1-ethyl-1,2,3,6-tetrahydropyridine-4-yl)-4,4-dimethylisoquinoline-1,3(2H,4H)-dione] |
| 7.25 | < 5.00 | CCN1CCC(c2ccc3c(c2)C(C)(C)C(=O)N(Cc2ncc(-c4nnc(C(F)F)o4)cn2)C3=O)CC1 [Compound 156, 2-((5-(5-(difluoromethyl)-1,3,4-oxadiazole-2-yl)pyrimidine-2-yl)methyl)-6-(1-ethylpiperidine-4-yl)-4,4-dimethylisoquinoline-1,3(2H,4H)-dione] |

— patent publication US12440484B2, “1,3,4-oxadiazole homophthalimide derivative compounds as histone deacetylase 6 inhibitor, and the pharmaceutical composition comprising the same” (Chong Kun Dang Pharmaceutical Corp., priority 2019, dated 2025)
